Patent US9975878B2, “Substituted triazine BMI-1 inhibitors” (PTC Therapeutics, Inc., priority 2013, dated 2018)

The molecules below were run on Bmi-1 protein (assay: Sandwich ELISA Assay: Bmi-1 protein level in HT-1080 cells treated with test compounds).
Type: cell-based
How it was run: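 HT-1080 cells exposed to compounds (final DMSO 0.5%) for 40-48 h at 37° C, 5% CO2, then lysed. Bmi-1 quantified by sandwich ELISA (mouse anti-Bmi-1 capture, rabbit anti-Bmi-1 detection, HRP anti-rabbit, TMB), read at OD450 with OD570 reference, against recombinant GST-Bmi-1 standard curve (0-8000 pg/mL).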

Structure (SMILES)	EC50 [nM]
Nc1nc(Nc2ccc(OC(F)F)cc2)nc(-c2c(C(F)(F)F)nc3ccc(F)cn23)n1 [Cpd 73, N-[4-(difluoromethoxy)phenyl]-6-[6-fluoro-2-(trifluoromethyl)imidazo[1,2-a]pyridin-3-yl]-1,3,5-triazine-2,4-diamine]	10 to 100
Cc1nc2cc(Cl)ccc2n1-c1nc(N)nc(Nc2ccc(C(F)(F)F)cc2)n1 [Cpd 74, 6-(5-chloro-2-methyl-1H-benzimidazol-1-yl)-N-[4-(trifluoromethyl)phenyl]-1,3,5-triazine-2,4-diamine]	100 to 3000
Cc1nc2ccc(Cl)cc2n1-c1nc(N)nc(Nc2ccc(C(F)(F)F)cc2)n1 [Cpd 75, 6-(6-chloro-2-methyl-1H-benzimidazol-1-yl)-N-[4-(trifluoromethyl)phenyl]-1,3,5-triazine-2,4-diamine]	10 to 100
Fc1ccc2nc(C3CC3)n(-c3ncnc(Nc4ccc(C(F)(F)F)cc4)n3)c2c1 [Cpd 76, 4-(2-cyclopropyl-6-fluoro-1H-benzimidazol-1-yl)-N-[4-(trifluoromethyl)phenyl]-1,3,5-triazin-2-amine]	100 to 3000
Nc1nc(Nc2ccc(OC(F)F)cc2)nc(-n2c(C3CC3)nc3ncc(F)cc32)n1 [Cpd 77, 6-(2-cyclopropyl-6-fluoro-1H-imidazo[4,5-b]pyridin-1-yl)-N-[4-(difluoromethoxy)phenyl]-1,3,5-triazine-2,4-diamine]	10 to 100
Cc1nc2ncc(F)cc2n1-c1nc(N)nc(Nc2ccc(OC(F)F)cc2)n1 [Cpd 78, N-[4-(difluoromethoxy)phenyl]-6-(6-fluoro-2-methyl-1H-imidazo[4,5-b]pyridin-1-yl)-1,3,5-triazine-2,4-diamine]	100 to 3000
CCc1nc2ncc(F)cc2n1-c1nc(N)nc(Nc2ccc(OC(F)F)cc2)n1 [Cpd 79, N-[4-(difluoromethoxy)phenyl]-6-(2-ethyl-6-fluoro-1H-imidazo[4,5-b]pyridin-1-yl)-1,3,5-triazine-2,4-diamine]	10 to 100
Cc1nc2cc(Cl)ccc2n1-c1nc(N)nc(Nc2ccc(OC(F)F)cc2)n1 [Cpd 80, 6-(5-chloro-2-methyl-1H-benzimidazol-1-yl)-N-[4-(difluoromethoxy)phenyl]-1,3,5-triazine-2,4-diamine]	100 to 3000
Cc1nc2ccc(Cl)cc2n1-c1nc(N)nc(Nc2ccc(OC(F)F)cc2)n1 [Cpd 81, 6-(6-chloro-2-methyl-1H-benzimidazol-1-yl)-N-[4-(difluoromethoxy)phenyl]-1,3,5-triazine-2,4-diamine]	10 to 100
CCc1nc2ncc(F)cc2n1-c1nc(N)nc(Nc2ccc(C(F)(F)F)cc2)n1 [Cpd 82, 6-(2-ethyl-6-fluoro-1H-imidazo[4,5-b]pyridin-1-yl)-N-[4-(trifluoromethyl)phenyl]-1,3,5-triazine-2,4-diamine]	10 to 100
Nc1nc(Nc2ccc(OC(F)F)cc2)nc(-n2c(C3CC3)nc3cc(F)c(F)cc32)n1 [Cpd 83, 6-(2-cyclopropyl-5,6-difluoro-1H-benzimidazol-1-yl)-N-[4-(difluoromethoxy)phenyl]-1,3,5-triazine-2,4-diamine]	10 to 100
CCc1nc2cc(F)c(F)cc2n1-c1nc(N)nc(Nc2ccc(OC(F)F)cc2)n1 [Cpd 84, N-[4-(difluoromethoxy)phenyl]-6-(2-ethyl-5,6-difluoro-1H-benzimidazol-1-yl)-1,3,5-triazine-2,4-diamine]	10 to 100
Nc1nc(Nc2ccc(C(F)(F)F)cc2)nc(-n2c(C3CC3)nc3c(F)cccc32)n1 [Cpd 85, 6-(2-cyclopropyl-4-fluoro-1H-benzimidazol-1-yl)-N-[4-(trifluoromethyl)phenyl]-1,3,5-triazine-2,4-diamine]	10 to 100
Nc1nc(Nc2ccc(OC(F)F)cc2)nc(-n2c(C3CC3)nc3c(F)cccc32)n1 [Cpd 86, 6-(2-cyclopropyl-4-fluoro-1H-benzimidazol-1-yl)-N-[4-(difluoromethoxy)phenyl]-1,3,5-triazine-2,4-diamine]	10 to 100
Nc1nc(Nc2ccc(OC(F)F)c(F)c2)nc(-n2c(C3CC3)nc3c(F)cccc32)n1 [Cpd 87, 6-(2-cyclopropyl-4-fluoro-1H-benzimidazol-1-yl)-N-[4-(difluoromethoxy)-3-fluorophenyl]-1,3,5-triazine-2,4-diamine]	10 to 100
Nc1nc(Nc2ccc(C(F)(F)F)cc2)nc(-n2c(C3CC3)nc3c(F)cc(F)cc32)n1 [Cpd 88, 6-(2-cyclopropyl-4,6-difluoro-1H-benzimidazol-1-yl)-N-[4-(trifluoromethyl)phenyl]-1,3,5-triazine-2,4-diamine]	10 to 100
Cc1nc2ccccc2n1-c1nc(N)nc(Nc2cccc(OC(F)F)c2)n1 [Cpd 93, N-[3-(difluoromethoxy)phenyl]-6-(2-methyl-1H-benzimidazol-1-yl)-1,3,5-triazine-2,4-diamine]	100 to 3000
Cc1nc2ccccc2n1-c1nncc(Nc2ccc(C(F)(F)F)cc2)n1 [Cpd 94, 3-(2-methyl-1H-benzimidazol-1-yl)-N-[4-(trifluoromethyl)phenyl]-1,2,4-triazin-5-amine]	100 to 3000
Cc1nc2c(F)cccc2n1-c1nc(N)nc(Nc2ccc(C(F)(F)F)cc2)n1 [Cpd 95, 6-(4-fluoro-2-methyl-1H-benzimidazol-1-yl)-N-[4-(trifluoromethyl)phenyl]-1,3,5-triazine-2,4-diamine]	100 to 3000

Structure (SMILES)	EC50 [nM]
Cc1nc2c(F)cccc2n1-c1nc(N)nc(Nc2ccc(OC(F)F)cc2)n1 [Cpd 96, N-[4-(difluoromethoxy)phenyl]-6-(4-fluoro-2-methyl-1H-benzimidazol-1-yl)-1,3,5-triazine-2,4-diamine]	10 to 100
Cc1nc2c(F)cccc2n1-c1nc(N)nc(Nc2ccc(OC(F)F)c(F)c2)n1 [Cpd 97, N-[4-(difluoromethoxy)-3-fluorophenyl]-6-(4-fluoro-2-methyl-1H-benzimidazol-1-yl)-1,3,5-triazine-2,4-diamine]	100 to 3000
CCc1nc2ccccc2n1-c1nncc(Nc2ccc(C(F)(F)F)cc2)n1 [Cpd 98, 3-(2-ethyl-1H-benzimidazol-1-yl)-N-[4-(trifluoromethyl)phenyl]-1,2,4-triazin-5-amine]	10 to 100
Cc1nc2ccccc2n1-c1nncc(Nc2ccc(OC(F)F)cc2)n1 [Cpd 99, N-[4-(difluoromethoxy)phenyl]-3-(2-methyl-1H-benzimidazol-1-yl)-1,2,4-triazin-5-amine]	10 to 100
CCc1nc2ccccc2n1-c1nncc(Nc2ccc(OC(F)F)cc2)n1 [Cpd 100, N-[4-(difluoromethoxy)phenyl]-3-(2-ethyl-1H-benzimidazol-1-yl)-1,2,4-triazin-5-amine]	10 to 100
FC(F)(F)c1ccc(Nc2cnnc(-n3c(C4CC4)nc4ccccc43)n2)cc1 [Cpd 101, 3-(2-cyclopropyl-1H-benzimidazol-1-yl)-N-[4-(trifluoromethyl)phenyl]-1,2,4-triazin-5-amine]	10 to 100
Nc1nc(Nc2ccc(OC(F)F)nc2)nc(-n2c(C(F)F)nc3ccccc32)n1 [Cpd 105, N-[6-(difluoromethoxy)pyridin-3-yl]-6-[2-(difluoromethyl)-1H-benzimidazol-1-yl]-1,3,5-triazine-2,4-diamine]	10 to 100
Nc1nc(Nc2ccc(C(F)(F)F)cc2)nc(-n2c(CF)nc3ccccc32)n1 [Cpd 107, 6-[2-(fluoromethyl)-1H-benzimidazol-1-yl]-N-[4-(trifluoromethyl)phenyl]-1,3,5-triazine-2,4-diamine]	100 to 3000
Nc1nc(Nc2ccc(OC(F)F)nc2)nc(-n2c(CF)nc3ccccc32)n1 [Cpd 110, N-[6-(difluoromethoxy)pyridin-3-yl]-6-[2-(fluoromethyl)-1H-benzimidazol-1-yl]-1,3,5-triazine-2,4-diamine]	100 to 3000
Cc1nc2ccccc2n1-c1cnnc(Nc2ccc(C(F)(F)F)cc2)n1 [Cpd 112, 5-(2-methyl-1H-benzimidazol-1-yl)-N-[4-(trifluoromethyl)phenyl]-1,2,4-triazin-3-amine]	100 to 3000
FC(F)Oc1ccc(Nc2cnnc(-n3c(C4CC4)nc4ccccc43)n2)cc1 [Cpd 113, 3-(2-cyclopropyl-1H-benzimidazol-1-yl)-N-[4-(difluoromethoxy)phenyl]-1,2,4-triazin-5-amine]	10 to 100
Nc1nc(Nc2ccc(C(F)(F)F)cc2)nc(-n2c(C(F)F)nc3cc(F)c(F)cc32)n1 [Cpd 114, 6-[2-(difluoromethyl)-5,6-difluoro-1H-benzimidazol-1-yl]-N-[4-(trifluoromethyl)phenyl]-1,3,5-triazine-2,4-diamine]	100 to 3000
Nc1nc(Nc2ccc(OC(F)F)cc2)nc(-n2c(C(F)F)nc3cc(F)c(F)cc32)n1 [Cpd 115, N-[4-(difluoromethoxy)phenyl]-6-[2-(difluoromethyl)-5,6-difluoro-1H-benzimidazol-1-yl]-1,3,5-triazine-2,4-diamine]	10 to 100
CCc1nc2cc(F)c(F)cc2n1-c1nc(N)nc(Nc2ccc(C(F)(F)F)cc2)n1 [Cpd 116, 6-(2-ethyl-5,6-difluoro-1H-benzimidazol-1-yl)-N-[4-(trifluoromethyl)phenyl]-1,3,5-triazine-2,4-diamine]	100 to 3000
Nc1nc(Nc2ccc(OC(F)F)c(F)c2)nc(-n2c(C(F)F)nc3cc(F)c(F)cc32)n1 [Cpd 117, N-[4-(difluoromethoxy)-3-fluorophenyl]-6-[2-(difluoromethyl)-5,6-difluoro-1H-benzimidazol-1-yl]-1,3,5-triazine-2,4-diamine]	100 to 3000
Nc1nc(Nc2ccc(C(F)(F)F)cc2)nc(-n2c(CO)nc3ccccc32)n1 [Cpd 118, [1-(4-amino-6-{[4-(trifluoromethyl)phenyl]amino}-1,3,5-triazin-2-yl)-1H-benzimidazol-2-yl]methanol]	100 to 3000
N#CCc1nc2ccccc2n1-c1nc(N)nc(Nc2ccc(C(F)(F)F)cc2)n1 [Cpd 119, [1-(4-amino-6-{[4-(trifluoromethyl)phenyl]amino}-1,3,5-triazin-2-yl)-1H-benzimidazol-2-yl]acetonitrile]	100 to 3000
Nc1nc(Nc2ccc(OC(F)F)cc2)nc(-n2c(CO)nc3ccccc32)n1 [Cpd 120, [1-(4-amino-6-{[4-(difluoromethoxy)phenyl]amino}-1,3,5-triazin-2-yl)-1H-benzimidazol-2-yl]methanol]	100 to 3000
